Measured values from ChEMBL document CHEMBL6074641, “Polypharmacological Drug Design Guided by Integrating Phenotypic and Restricted Fragment Docking Strategies” (J Med Chem, 2024).
Active and inactive are the calls of the source. No cut-off for these calls is given here.

Legend:
Cytochrome P450 3A5 = Cytochrome P450 3A5 (Homo sapiens, UniProt P20815); assay: Inhibition of CYP3A5 (unknown origin) using midazolam as substrate incubated for 10 mins in presence of NADPH by LC-MS/MS analysis; assay type: ADME
hERG (KCNH2) = hERG (KCNH2) (Homo sapiens, UniProt Q12809); assay: Inhibition of human ERG expressed in CHO cells at 20 uM by Qpatch clamp method relative to control; assay type: toxicity, cell-based; conditions: CHO cells that express hERG
[1] = target: Receptor-interacting serine/threonine-protein kinase 1 (Mus musculus) (UniProt Q60855); assay: Inhibition of RIPK1 activation in mouse BV-2 cells by Western blotting analysis; assay type: cell-based; conditions: dose 4-100 nM
[2] = target: ALK tyrosine kinase receptor (Homo sapiens, UniProt Q9UM73, E1167A); assay: Inhibition of ALK E1167A mutant (unknown origin) expressed in Escherichia coli BL21 (DE3)
Mus musculus [3] = assay: Anti-alzheimer activity against 8 month old 3xTg mouse model assessed as increase in beta-III tubulin expression at 10 mg/kg, po; assay type: functional, organism-based
Mus musculus [4] = assay: Anti-alzheimer activity against 5 month old APP/PS1 transgenic mouse model assessed as decrease in restlessness at 2 to 10 mg/kg, po administered 4 times per week for 4 weeks; assay type: functional, organism-based; conditions: dose 2-10 mg/kg

Receptor-interacting serine/threonine-protein kinase 1 (Mus musculus), sequence (Q60855 whole entry): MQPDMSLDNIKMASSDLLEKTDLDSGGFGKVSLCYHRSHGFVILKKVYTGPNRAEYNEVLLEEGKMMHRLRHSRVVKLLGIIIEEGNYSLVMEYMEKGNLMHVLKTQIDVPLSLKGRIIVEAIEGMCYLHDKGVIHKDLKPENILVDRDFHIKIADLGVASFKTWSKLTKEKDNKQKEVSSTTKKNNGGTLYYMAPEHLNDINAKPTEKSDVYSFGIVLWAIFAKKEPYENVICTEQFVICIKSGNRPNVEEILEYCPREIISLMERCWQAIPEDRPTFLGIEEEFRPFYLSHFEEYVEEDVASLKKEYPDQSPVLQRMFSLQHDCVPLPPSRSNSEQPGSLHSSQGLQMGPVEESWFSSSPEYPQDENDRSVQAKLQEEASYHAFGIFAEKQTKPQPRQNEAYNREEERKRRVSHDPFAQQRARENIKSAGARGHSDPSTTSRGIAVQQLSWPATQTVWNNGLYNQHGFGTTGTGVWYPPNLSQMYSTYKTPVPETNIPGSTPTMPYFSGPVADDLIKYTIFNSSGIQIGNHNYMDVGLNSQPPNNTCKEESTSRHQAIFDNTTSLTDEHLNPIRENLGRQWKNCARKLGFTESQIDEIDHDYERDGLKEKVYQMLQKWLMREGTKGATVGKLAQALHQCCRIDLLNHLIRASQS
ALK tyrosine kinase receptor, sequence (Q9UM73 19-1620 E1167A limits assumed): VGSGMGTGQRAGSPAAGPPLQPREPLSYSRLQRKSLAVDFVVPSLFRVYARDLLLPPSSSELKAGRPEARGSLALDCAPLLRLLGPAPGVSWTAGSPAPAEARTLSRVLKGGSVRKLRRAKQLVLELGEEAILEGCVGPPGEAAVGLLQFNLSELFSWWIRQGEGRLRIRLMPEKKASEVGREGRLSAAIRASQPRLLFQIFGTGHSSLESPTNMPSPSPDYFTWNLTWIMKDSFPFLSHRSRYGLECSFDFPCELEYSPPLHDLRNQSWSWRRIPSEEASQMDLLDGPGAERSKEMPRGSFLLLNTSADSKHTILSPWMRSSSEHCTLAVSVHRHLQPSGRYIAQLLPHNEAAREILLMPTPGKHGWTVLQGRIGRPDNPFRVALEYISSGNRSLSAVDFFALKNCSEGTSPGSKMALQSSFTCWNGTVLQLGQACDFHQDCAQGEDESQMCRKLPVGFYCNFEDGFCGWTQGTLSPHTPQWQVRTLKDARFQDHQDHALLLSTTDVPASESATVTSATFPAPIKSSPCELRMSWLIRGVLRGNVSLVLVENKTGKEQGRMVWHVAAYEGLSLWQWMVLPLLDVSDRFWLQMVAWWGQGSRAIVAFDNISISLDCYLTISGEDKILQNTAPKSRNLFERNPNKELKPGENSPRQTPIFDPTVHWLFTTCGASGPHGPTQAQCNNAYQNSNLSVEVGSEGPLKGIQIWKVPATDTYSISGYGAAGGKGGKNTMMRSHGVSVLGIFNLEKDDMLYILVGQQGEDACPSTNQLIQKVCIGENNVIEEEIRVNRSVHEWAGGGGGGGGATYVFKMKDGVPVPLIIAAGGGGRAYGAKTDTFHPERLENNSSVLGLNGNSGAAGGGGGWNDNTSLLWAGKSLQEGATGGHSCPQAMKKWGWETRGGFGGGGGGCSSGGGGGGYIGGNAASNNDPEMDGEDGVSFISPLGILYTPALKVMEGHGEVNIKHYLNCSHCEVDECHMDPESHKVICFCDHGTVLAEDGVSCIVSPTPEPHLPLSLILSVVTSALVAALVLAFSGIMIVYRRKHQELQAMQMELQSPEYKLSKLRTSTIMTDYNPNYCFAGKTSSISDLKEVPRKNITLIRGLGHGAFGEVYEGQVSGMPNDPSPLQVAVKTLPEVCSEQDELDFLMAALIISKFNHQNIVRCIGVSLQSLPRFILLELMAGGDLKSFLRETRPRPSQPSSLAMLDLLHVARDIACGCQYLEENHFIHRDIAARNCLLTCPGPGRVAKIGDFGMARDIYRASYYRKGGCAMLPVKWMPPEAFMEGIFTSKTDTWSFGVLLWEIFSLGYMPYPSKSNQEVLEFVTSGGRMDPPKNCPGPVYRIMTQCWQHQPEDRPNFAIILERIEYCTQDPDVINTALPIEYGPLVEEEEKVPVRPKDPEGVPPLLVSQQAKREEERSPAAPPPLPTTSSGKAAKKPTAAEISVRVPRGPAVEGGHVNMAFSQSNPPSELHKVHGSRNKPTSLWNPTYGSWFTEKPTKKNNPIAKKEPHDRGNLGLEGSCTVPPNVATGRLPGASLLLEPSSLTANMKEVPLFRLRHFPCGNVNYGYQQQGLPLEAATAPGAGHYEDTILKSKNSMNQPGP
hERG (KCNH2), sequence (Q12809 whole entry): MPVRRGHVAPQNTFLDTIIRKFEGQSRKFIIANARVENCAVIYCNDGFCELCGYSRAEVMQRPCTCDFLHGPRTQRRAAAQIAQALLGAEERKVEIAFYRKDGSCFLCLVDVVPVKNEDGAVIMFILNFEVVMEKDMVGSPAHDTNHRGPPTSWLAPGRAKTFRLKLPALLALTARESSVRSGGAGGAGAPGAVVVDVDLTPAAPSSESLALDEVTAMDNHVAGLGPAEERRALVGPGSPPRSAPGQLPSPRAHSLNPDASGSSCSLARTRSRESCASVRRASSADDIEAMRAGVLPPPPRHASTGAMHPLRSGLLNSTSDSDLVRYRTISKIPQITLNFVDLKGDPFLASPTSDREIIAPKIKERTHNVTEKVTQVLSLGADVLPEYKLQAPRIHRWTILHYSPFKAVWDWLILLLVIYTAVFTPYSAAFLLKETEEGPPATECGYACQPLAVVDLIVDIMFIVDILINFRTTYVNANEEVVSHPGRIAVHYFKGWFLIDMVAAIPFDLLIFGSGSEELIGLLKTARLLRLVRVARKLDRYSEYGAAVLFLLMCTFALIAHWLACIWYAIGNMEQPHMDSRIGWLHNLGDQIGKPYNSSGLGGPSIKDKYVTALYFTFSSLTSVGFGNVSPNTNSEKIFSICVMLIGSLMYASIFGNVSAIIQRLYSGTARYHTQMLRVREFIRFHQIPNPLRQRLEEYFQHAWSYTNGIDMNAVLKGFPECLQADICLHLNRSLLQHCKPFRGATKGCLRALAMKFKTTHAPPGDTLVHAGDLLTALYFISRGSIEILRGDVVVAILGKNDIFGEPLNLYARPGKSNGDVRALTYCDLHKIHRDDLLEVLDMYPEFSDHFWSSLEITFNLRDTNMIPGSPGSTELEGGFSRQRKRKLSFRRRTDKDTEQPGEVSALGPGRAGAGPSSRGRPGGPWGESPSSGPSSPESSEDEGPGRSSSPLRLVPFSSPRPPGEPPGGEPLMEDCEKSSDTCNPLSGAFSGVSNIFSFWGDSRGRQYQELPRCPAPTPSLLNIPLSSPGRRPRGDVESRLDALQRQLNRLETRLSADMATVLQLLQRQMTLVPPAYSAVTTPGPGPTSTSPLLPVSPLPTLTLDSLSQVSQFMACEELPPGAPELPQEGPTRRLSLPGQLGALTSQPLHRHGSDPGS
Cytochrome P450 3A5, sequence (P20815 whole entry): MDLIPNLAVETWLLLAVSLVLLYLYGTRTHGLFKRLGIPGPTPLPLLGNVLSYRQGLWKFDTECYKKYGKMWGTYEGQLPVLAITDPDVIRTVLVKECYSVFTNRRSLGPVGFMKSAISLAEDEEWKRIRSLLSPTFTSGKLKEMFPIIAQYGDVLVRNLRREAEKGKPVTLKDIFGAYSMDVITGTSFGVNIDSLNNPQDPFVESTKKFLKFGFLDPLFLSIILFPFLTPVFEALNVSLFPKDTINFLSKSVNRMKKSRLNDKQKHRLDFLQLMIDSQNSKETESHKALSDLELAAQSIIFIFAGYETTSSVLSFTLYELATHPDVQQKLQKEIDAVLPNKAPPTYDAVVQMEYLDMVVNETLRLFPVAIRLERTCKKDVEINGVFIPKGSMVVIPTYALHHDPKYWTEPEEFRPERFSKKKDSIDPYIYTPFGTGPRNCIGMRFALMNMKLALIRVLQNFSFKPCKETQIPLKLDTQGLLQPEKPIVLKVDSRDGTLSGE

Cc1cc(F)cc(Nc2ncc(Nc3ccc(SC(F)(F)F)cc3)cc2C(N)=O)c1
IC50 (Cytochrome P450 3A5): > 10 µM | inhibition at 20 µM (hERG (KCNH2)): 11.3% | inhibition [1]: Dose-dependent-effect | IC50 [2]: 4.43 µM | Activity (Mus musculus [3]): Active | Activity (Mus musculus [4]): Active
